The experiment concerns the target T1, M351T Bcr-abl (Ba/F3 cells) (Homo sapiens, UniProt P00519, M351T).
T1 construct: expressed in transfected cells; host or cells: Ba/F3; the other entry of the earlier key: BCR (P11274, Breakpoint cluster region protein)
In words: Proliferation of Ba/F3 cells expressing mutant Bcr-abl M351T. The format is cell-based. The procedure: 2D-p210 cells are plated into 96 well TC plates at a density of 15,000 cells per well. 50 μL of two fold serial dilutions of the test compound (Cmax is 40 μM) are added to each well (STI571 is included as a positive control). After incubating the cells for 48 hours at 37° C., 5% CO2, 15 μL of MTT (Promega) is added to each well and the cells are incubated for an additional 5 hours. The optical density at 570 nm is quantified spectrophotometrically and IC50 values, the concentration of compound required for 50% inhibition, determined from a dose response curve.
Compounds of the invention are tested for their antiproliferative effect on Ba/F3 cells expressing either wild type or the mutant forms of BCR-Abl (G250E, E255V, T315I, F317L, M351T) that confers resistance or diminished sensitivity to STI571. The antiproliferative effect of these compounds on the mutant-BCR-Abl expressing cells and on the non transformed cells were tested at 10, 3.3, 1.1 and 0.37 μM as described above (in media lacking IL3). The IC50 values of the compounds lacking toxicity on the untransformed cells were determined from the dose response curves obtained as describe above.

pIC50: −log10 of the molar value.

One may read the pIC50 as the negative decadic logarithm of the IC50, by convention in mol/L. High values mean a low IC50, low ones a high IC50. For `Cc1cn(-c2cc(C(=O)Nc3ccc(C)c(Nc4nccn4-c4ncnc5[nH]ccc45)c3)cc(C(F)(F)F)c2)cn1` [Example 2, 3-(4-methyl-imidazol-1-yl)-N-{4-methyl-3-[1-(7H-pyrrolo[2,3-d]pyrimidin-4-yl)-1H-imidazol-2-ylamino]-phenyl}-5-trifluoromethyl-benzamide], the pIC50 was more than 9.30.

The values are drawn from patent US20080188483A1, “Compounds and Compositions as Protein Kinase Inhibitors” (IRM LLC, priority 2006, published 2008).
